# Measurements as given in patent US20230250096A1, “SUBSTITUTED PHENYL-1H-PYRROLO[2,3-c] PYRIDINE DERIVATIVES” (Janssen Pharmaceutica NV, priority 2021, published 2023).
# Assays:
# [1] = molecular target: T1, menin/MLL (terbium chelate-labeled menin, FITC-MBM1 peptide) (Homo sapiens, UniProt O00255, T541A); test: Menin/MLL homogenous time-resolved fluorescence (HTRF) assay; type: binding; conditions: 30 min incubation
# T1 construct: Menin (a.a 1-610-6xhis tag, 2.3 mg/mL in 20 mM Hepes)
# T1 sequence (O00255 with tags, fused parts or gaps T541A): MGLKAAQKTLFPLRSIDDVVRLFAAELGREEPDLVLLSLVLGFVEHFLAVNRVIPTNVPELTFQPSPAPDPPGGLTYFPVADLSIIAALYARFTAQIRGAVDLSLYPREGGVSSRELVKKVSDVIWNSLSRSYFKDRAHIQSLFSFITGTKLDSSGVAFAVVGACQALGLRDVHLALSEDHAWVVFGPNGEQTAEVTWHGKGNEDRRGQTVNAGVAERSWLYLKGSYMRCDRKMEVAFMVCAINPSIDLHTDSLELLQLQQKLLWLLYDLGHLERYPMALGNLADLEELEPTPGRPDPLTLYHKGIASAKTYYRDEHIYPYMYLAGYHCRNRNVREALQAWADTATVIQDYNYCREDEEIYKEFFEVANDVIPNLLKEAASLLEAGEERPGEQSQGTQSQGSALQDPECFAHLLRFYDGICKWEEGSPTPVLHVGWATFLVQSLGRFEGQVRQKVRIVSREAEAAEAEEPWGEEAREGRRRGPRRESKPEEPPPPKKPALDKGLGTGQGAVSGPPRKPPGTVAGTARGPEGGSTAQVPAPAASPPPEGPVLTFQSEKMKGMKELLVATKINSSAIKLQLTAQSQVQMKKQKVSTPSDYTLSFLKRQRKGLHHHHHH
# Outline: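 Terbium-labeled menin (a.a. 1-610, His-tagged; […]) pre-incubated 30 min with compound, then 75 nM FITC-MBM1 peptide added for 15 min at ambient temperature in Tris pH 7.5 buffer, 0.5% DMSO. HTRF 520/490 nm ratio read; IC50 from 11-point four-fold titrations, typically from 10 μM.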
# MEIS1 mRNA expression = MEIS1 mRNA expression assay (Quantigene Singleplex) in MOLM14 cells; type: cell-based, human; conditions: 48 hours incubation
# Outline: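 MOLM14 cells, 3,750/well, exposed to increasing compound concentrations for 48 h. MEIS1 mRNA measured by QuantiGene Singleplex branched-DNA hybridization (lysis 45 min, hybridization 18–22 h, both 55 °C), normalized to RPL28. IC50 fitted to background-corrected fold change versus DMSO.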
Compound,IC50 [1],"IC50 (MEIS1 mRNA expression; Homo sapiens, MOLM-14, 48 h)",IC50 (MEIS1 mRNA expression)
"CC(=O)N1CCC(C(C)N2CCC(Cc3cn(-c4ccc(F)cc4C(=O)N(C)C(C)C)c4cncc(C)c34)C2)CC1 (single isomer, unassigned) [Compound 116a]",0.075 nM,5 nM,–
"Cc1cncc2c1c(CC1CCN(CC3CCN(C(=O)C(C)(C)O)CC3)C1)cn2-c1ccc(F)cc1C(=O)N(C)C(C)C (single isomer, unassigned) [Compound 125]",0.027 nM,16 nM,–
"CN=[S@](=O)(c1cc(F)ccc1-n1cc(C[C@@H]2CCN(CC3CCN(C(C)=O)CC3)C2)c2c(C)cncc21)C(C)C (single isomer, unassigned) [Compound 128a]",0.151 nM,258 nM,–
"COCC(=O)N1CCC(CN2CC[C@@H](Cc3cn(-c4ccc(F)cc4C(=O)N(C)C(C)C)c4cncc(C)c34)C2)CC1 (single isomer, unassigned) [Compound 136]",~0.094 nM,71 nM,–
"CC(=O)N1CCC(N2CC[C@H](Cc3cn(-c4ccc(F)cc4C(=O)N(C)C(C)C)c4cncc(C)c34)C2)C(C)C1 (single isomer, unassigned) [Compound 137a]",0.063 nM,–,14 nM
"CNC(=O)[C@H]1CC[C@H](CN2CC([C@H](C)c3cn(-c4ccc(F)cc4C(=O)N(C)C(C)C)c4cncc(C)c34)C2)CC1 (single isomer, unassigned) [Compound 164b]",0.025 nM,17 nM,–
"COC[C@H](C1CCCCO1)N1CC[C@@H](Cc2cn(-c3ccc(F)cc3C(=O)N(C)C(C)C)c3cncc(C)c23)C1 (single isomer, unassigned) [Compound 165b]",0.07 nM,38 nM,–
"Cc1cncc2c1c(C[C@@H]1CCN([C@H](C)C3CCOCC3)C1)cn2-c1ccc(F)cc1[S@](=N)(=O)C(C)C (single isomer, unassigned) [Compound 180a]",0.143 nM,117 nM,–
"Cc1cncc2c1c(C[C@H]1CCN([C@H](C)C3CCOCC3)C1)cn2-c1ccc(F)cc1[S@](=N)(=O)C(C)C (single isomer, unassigned) [Compound 181a]",0.066 nM,111 nM,–
"Cc1cncc2c1c(CC1CCN(CC3CCC(=O)N(C)CC3)C1)cn2-c1ccc(F)cc1C(=O)N(C)C(C)C (single isomer, unassigned) [Compound 184a]",0.041 nM,–,23 nM
"Cc1cncc2c1c(CC1CCN(CC3CCC(=O)N(C)CC3)C1)cn2-c1ccc(F)cc1C(=O)N(C)C(C)C (single isomer, unassigned) [Compound 184b]",0.065 nM,–,115 nM
"Cc1cncc2c1c(C[C@@H]1CCN(C[C@H]3CCOC3)C1)cn2-c1ccc(F)cc1C(=O)N(C)C(C)C (single isomer, unassigned) [Compound 190a]",0.101 nM,113 nM,–
"Cc1cncc2c1c(C[C@@H]1CCN(C[C@@H]3CCOC3)C1)cn2-c1ccc(F)cc1C(=O)N(C)C(C)C (single isomer, unassigned) [Compound 190b]",0.063 nM,65 nM,–
"Cc1cncc2c1c(CC1CN(C[C@H]3CCOC3)C1)cn2-c1ccc(F)cc1C(=O)N(C)C(C)C (single isomer, unassigned) [Compound 191a]",0.056 nM,39 nM,–
"Cc1cncc2c1c(CC1CN(C[C@@H]3CCOC3)C1)cn2-c1ccc(F)cc1C(=O)N(C)C(C)C (single isomer, unassigned) [Compound 191b]",0.071 nM,41 nM,–
"Cc1cncc2c1c(C[C@@H]1CCN([C@@H](CO)C3CCCOC3)C1)cn2-c1ccc(F)cc1C(=O)N(C)C(C)C (single isomer, unassigned) [Compound 198a]",0.034 nM,13 nM,–
"Cc1cncc2c1c(C[C@@H]1CCN([C@H](CO)C3CCCOC3)C1)cn2-c1ccc(F)cc1C(=O)N(C)C(C)C (single isomer, unassigned) [Compound 198b]",0.085 nM,107 nM,–
"Cc1cncc2c1c(C[C@@H]1CCN(CC3CCC(O)CC3)C1)cn2-c1ccc(F)cc1C(=O)N(C)C(C)C (single isomer, unassigned) [Compound 205a]",0.049 nM,21 nM,–
"Cc1cncc2c1c(C[C@@H]1CCN(CC3CCC(O)CC3)C1)cn2-c1ccc(F)cc1C(=O)N(C)C(C)C (single isomer, unassigned) [Compound 205b]",0.035 nM,–,31 nM
"CC(=O)N1CCC([C@H](CO)N2CC[C@@H](Cc3cn(-c4ccc(F)cc4C(=O)N(C)C(C)C)c4cncc(C)c34)C2)CC1 (single isomer, unassigned) [Compound 206a]",0.045 nM,24 nM,–
"CC(=O)N1CCC(CN2CC[C@@H](Cc3cn(-c4ccc(F)cc4C(=O)N4CCC5CC54)c4cncc(C)c34)C2)CC1 (single isomer, unassigned) [Compound 311a]",0.037 nM,14 nM,–

Compound,IC50 [1],"IC50 (MEIS1 mRNA expression; Homo sapiens, MOLM-14, 48 h)",IC50 (MEIS1 mRNA expression)
"CC(=O)N1CCC(CN2CC[C@@H](Cc3cn(-c4ccc(F)cc4C(=O)N4CCC5CC54)c4cncc(C)c34)C2)CC1 (single isomer, unassigned) [Compound 311b]",0.077 nM,–,26 nM
"Cc1cncc2c1c(C[C@@H]1CCN(C[C@H]3CCNC(=O)CC3)C1)cn2-c1ccc(F)cc1C(=O)N1[C@H](C)CC[C@H]1C (single isomer, unassigned) [Compound 352a]",0.102 nM,13 nM,–
"Cc1cncc2c1c(C[C@@H]1CCN(C[C@@H]3CCNC(=O)CC3)C1)cn2-c1ccc(F)cc1C(=O)N1[C@H](C)CC[C@H]1C (single isomer, unassigned) [Compound 352b]",0.247 nM,266 nM,–
"Cc1cncc2c1c(C[C@@H]1CCN(CC3CCNC(=O)CC3)C1)cn2-c1ccc(F)cc1C(=O)N1CCC[C@H]1C (single isomer, unassigned) [Compound 353a]",0.094 nM,–,12 nM
COCCN(C)CCCC(C(C)C)N1CC[C@@H](Cc2cn(-c3ccc(F)cc3C(=O)N(C)C(C)C)c3cncc(Cl)c23)C1 (stereo partly shown) [Compound 3],0.026 nM,10 nM,–
COCCN(C)CCCC(C(C)C)N1CC[C@H](Cc2cn(-c3ccc(F)cc3C(=O)N(C)C(C)C)c3cncc(Cl)c23)C1 (stereo partly shown) [Compound 4],0.016 nM,11 nM,–
COCCN(C)CCCC(C(C)C)N1CCC(Cc2cn(-c3ccc(F)cc3C(=O)N(C)C(C)C)c3cncc(F)c23)C1 (stereo not shown) [Compound 6],0.288 nM,49 nM,–
CNC(=O)[C@H]1CC[C@H](CN2CC(Cc3cn(-c4ccc(F)cc4C(=O)N(C)C(C)C)c4cncc(C)c34)C2)CC1 [Compound 74],0.034 nM,12 nM,–
CNC(=O)c1cncc(N2CCC(N3CC(Cc4cn(-c5ccc(F)cc5C(=O)N(C)C(C)C)c5cncc(C)c45)C3)CC2)n1 [Compound 75],0.059 nM,119 nM,–
CN=S(=O)(c1cc(F)ccc1-n1cc(CC2CCN(CC3CCOCC3)C2)c2c(C)cncc21)C(C)C (stereo not shown) [Compound 77],0.191 nM,136 nM,–
CC(=O)N1CCC(C)(CN2CC(Cc3cn(-c4ccc(F)cc4C(=O)N(C)C(C)C)c4cncc(C)c34)C2)CC1 [Compound 84],0.075 nM,131 nM,–
Cc1cncc2c1c(CC1CN(CC3CCNC(=O)CC3)C1)cn2-c1ccc(F)cc1C(=O)N(C)C(C)C (stereo not shown) [Compound 104],0.147 nM,254 nM,–
CN=S(=O)(c1cc(F)ccc1-n1cc(CC2CCN(CC3CCN(C(C)=O)CC3)C2)c2c(C)cncc21)C(C)C (stereo not shown) [Compound 128],0.078 nM,238 nM,–
Cc1cncc2c1c(CC1CN(CC3CCC(O)CC3)C1)cn2-c1ccc(F)cc1C(=O)N(C)C(C)C (stereo not shown) [Compound 144],0.072 nM,11 nM,–
COC(=O)[C@H]1CC[C@@H](CN2CC[C@@H](Cc3cn(-c4ccc(F)cc4C(=O)N(C)C(C)C)c4cncc(C)c34)C2)CC1 [Compound 153],0.077 nM,77 nM,–
Cc1cncc2c1c(C[C@@H]1CCN(C[C@H]3CC[C@@H](C(=O)N4CCC4)CC3)C1)cn2-c1ccc(F)cc1C(=O)N(C)C(C)C [Compound 178],0.055 nM,14 nM,–
CNC(=O)[C@H]1CC[C@@H](CN2CC[C@@H](Cc3cn(-c4ccc(F)cc4C(=O)N(C)C(C)C)c4cncc(C)c34)C2)CC1 [Compound 185],0.097 nM,44 nM,–
CC(=O)N1CCC(CCN2CC[C@@H](Cc3cn(-c4ccc(F)cc4C(=O)N(C)C(C)C)c4cncc(C)c34)C2)CC1 [Compound 189],0.544 nM,314 nM,–
Cc1cncc2c1c(C[C@@H]1CCN(C[C@H]3CCCCN3)C1)cn2-c1ccc(F)cc1C(=O)N(C)C(C)C [Compound 199],0.327 nM,338 nM,–
CC(=O)NC1CCC(N2CC[C@@H](Cc3cn(-c4ccc(F)cc4C(=O)N(C)C(C)C)c4cncc(C)c34)C2)CC1 (stereo partly shown) [Compound 200],0.909 nM,–,~864 nM
